In paper PMC8878324, “Evaluation of New Antimicrobial Agents Based on tris(1H-Indol-3-yl)methylium Salts: Activity, Toxicity, Suppression of Experimental Sepsis in Mice” (Pharmaceuticals, 2022):
Converted amounts (≈) assume the structure as drawn.

Key:
[1] = Cytotoxic activity, MTT assay; type: cell-based, human; conditions: human, HPF-hTERT
Method: The cytotoxic activity of the compounds was evaluated on the healthy donor (postnatal) human fibroblasts immortalized by transfection of the hTERT gene of the catalytic component of telomerase (hereinafter HPF-hTERT) that were obtained from N.N. Blokhin Russian Cancer Research Center. HFC-hTERT cells were cultured in Dulbecco’s modified medium (DMEM) containing 2 mM of L-glutamine, 10% fetal calf serum, 100 U/mL of penicillin and 100 μg/mL of streptomycin. Incubation was performed in a humidified atmosphere of 5% CO2 at 37 °C. In the experiment, we used cells in the logarithmic growth phase. To study the cytotoxicity of compounds, 190 μL of cell suspension (~2 thousand cells per well) was added to the wells of 96-well plates and incubated for 16 h. On the day of the experiment, serial dilutions of the test compounds were prepared in DMSO (stock solution—10 mM in 100% DMSO). Further dilutions were conducted in a nutrient medium. The final concentrations of compounds in the experiment were in a concentration range from 0.0025 to 50 μM. The final concentration of DMSO was 1% or less. Each concentration was presented in 3 repetitions. […] The cells were incubated with the test compounds for 72 h. After the end of incubation, 20 μL of MTT solution in growth medium (5 mg/mL) was added to the wells. The cells were incubated for 2 h until a purple color developed, after which the culture medium was removed. DMSO was added to the wells, and the sediment was suspended. Optical density was measured with a Thermo Scientific Multiscan FC spectrophotometer at 570 nm. The values of optical density in wells without addition of test compounds (control) were taken as 100% cell survival. The percentage of survival of cells incubated with the test compounds was calculated by dividing the optical density in the corresponding well (average of 3 independent measurements) by the optical density in the control. The concentration of drugs causing 50% cell death (IC50) was evaluated and expressed in μg/mL.

[2] = tested on: Candida albicans ATCC 14053; assay: MIC by broth microdilution (RPMI 1640); type: cell-based; conditions: ATCC14053
Method: (§1) We have tested the antimicrobial activity in vitro of over 100 tris(indolyl)methane derivatives against 16 strains of Gram-positive, Gram-negative bacteria and fungi including either sensitive or drug-resistant strains from ATCC, as well as resistant clinical isolates from the culture collection of the Laboratory for Control of Hospital Infections (Sechenov University, Moscow, Russia). The minimum inhibitory concentrations (MICs) were determined by the microdilution method in a cation-adjusted Müller–Hinton medium for bacteria and in a liquid culture medium RPMI 1640 with L-glutamine without sodium bicarbonate for fungi in accordance with the requirements of the Institute of Clinical and Laboratory Standards (CLSI/NCCLS). […] As a rule, their activity against Gram-negative bacteria was usually not that high. […] For comparison, the antimicrobial activity of prototype 4 is shown. The antibacterial antibiotic levofloxacin and the antifungal amphotericin B were used as reference drugs (Table 1).
(§2) The synthesis of compounds and the scheme of their preparation and purification, as well as physicochemical characteristics, were described earlier. To evaluate the biological activity in vitro, the compounds were dissolved in DMSO at a concentration of 2.0–6.4 mg/mL, followed by preparation of two-fold dilutions in the same solvent, if necessary. The solutions were further diluted in an aqueous medium for the final concentration of DMSO not to exceed 1%, and the concentration of the compounds ranged from 64.0 to 0.13 μg/mL. To study compounds in vivo, solutions for intravenous administration in 5% glucose solution were prepared. Solutions were sterilized by filtration through 0.22 µm filters (Millipore, Burlington, MA, USA).
(§3) Strains of Gram-positive, Gram-negative bacteria and fungi including sensitive or drug-resistant strains from ATCC, as well as resistant clinical isolates from the culture collection of the Laboratory for Control of Hospital Infections (Sechenov University, Moscow, Russia), were used. Clinical isolates of Gram-positive bacteria Staphylococcus aureus 5 (MRSA), Staphylococcus aureus 10, Staphylococcus aureus 100KC (MRSA), Staphylococcus epidermidis 533, Staphylococcus haemoliticus 585 and Enterococcus faecium 569, as well as collection cultures of Gram-positive bacteria Staphylococcus aureus ATCC 700699, Staphylococcus aureus ATCC 25923, Staphylococcus aureus ATCC 3798 and collection cultures of Gram-negative bacteria Escherichia coli ATCC 25922, Klebsiella pneumoniae ATCC 13883, Proteus vulgaris ATCC 13315, Salmonella cholerasuis ATCC 14028, Pseudomonas aeruginosa ATCC 27853 and collection cultures of the yeast Candida albicans ATCC 14053 and the fungi Aspergillus niger ATCC 16404 were used. To grow the microorganisms, we used Trypticase Soy Agar (TSA, Sigma-Aldrich Co., Burlington, MA, USA). Trypticase Soy Agar, BBL, was used for cultivation of Staphylococcus spp. and E. coli. For cultivation of Enterococcus spp. and P. aeruginosa we used a ready-made dry medium Columbia Agar Base, BBL. The media were sterilized by autoclaving at 121 °C for 15 min. Yeast culture C. albicans was grown on Sabouraud agar (peptone—10 g, glucose—40 g, agar—20 g, distilled water—1 L, pH 6.0), and filamentous fungi A. niger was grown on potato–glucose agar (potatoes—200 g, glucose—20 g, agar—15 g, distilled water—1 L, pH 5.5–6.0).
(§4) To determine the antibacterial effect, a liquid Müller–Hinton medium (Becton, Dickinson and Company, Cockeysville, MD, USA) was used; to determine the effect of compounds on fungi we used RPMI 1640 medium with L-glutamine, without sodium bicarbonate, which was prepared from a dry medium (ICN Biomedicals Inc., Costa Mesa, CA, USA) by dilution in distilled water, subsequent buffering with 0.165 M of morpholinepropanesulfonic acid (MOPS, Acros Organics B.V.B.A., Morris Plains, NJ, USA) and adjusting the pH of the medium to 7.0 by adding 1 N of NaOH solution. […]

[3] = tested on: Aspergillus niger ATCC 16404; assay: MIC by broth microdilution (RPMI 1640); type: cell-based; conditions: ATCC16404
Method: as §1, §2, §3, §4

[4] = tested on: yeast (Candida albicans) and fungi (Aspergillus niger); assay: Antifungal activity; type: cell-based; conditions: Candida albicans and Aspergillus niger
Method: as §1
(§5) The minimum inhibitory concentrations (MIC) for Gram-positive and Gram-negative bacteria were determined by two-fold serial microdilution method in a cation-adjusted Müller–Hinton medium for bacteria and in a liquid culture medium RPMI 1640 with L-glutamine without sodium bicarbonate for fungi in accordance with the requirements of the Institute of Clinical and Laboratory Standards (CLSI/NCCLS). The antibacterial antibiotic levofloxacin and the antifungal antibiotic amphotericin B from Sigma-Aldrich were used as reference drugs.

[5] = tested on: Proteus vulgaris ATCC 13315; assay: MIC by broth microdilution; type: cell-based; conditions: ATCC13315
Method: as §1, §2, §3, §4

[6] = tested on: Staphylococcus aureus ATCC 700699; assay: MIC by broth microdilution; type: cell-based; conditions: ATCC700699
Method: as §1, §2, §3, §4

[7] = tested on: Staphylococcus aureus 100KC; assay: MIC by broth microdilution; type: cell-based; conditions: Staphylococcus aureus 100KC (MRSA)
Method: as §1, §2, §3, §4

[8] = tested on: Staphylococcus aureus ATCC 25923; assay: MIC by broth microdilution; type: cell-based; conditions: ATCC25923
Method: as §1, §2, §3, §4

[9] = tested on: Pseudomonas aeruginosa ATCC 27853; assay: MIC by broth microdilution; type: cell-based; conditions: ATCC27853
Method: as §1, §2, §3, §4

[10] = tested on: Staphylococcus aureus ATCC 3798; assay: MIC by broth microdilution; type: cell-based; conditions: ATCC3798
Method: as §1, §2, §3, §4

[11] = tested on: Staphylococcus epidermidis 533; assay: MIC by broth microdilution; type: cell-based
Method: as §1, §2, §3, §4

[12] = tested on: Escherichia coli ATCC 25922; assay: MIC by broth microdilution; type: cell-based; conditions: ATCC25922
Method: as §1, §2, §3, §4

Staphylococcus aureus 5 = assay: MIC by broth microdilution; type: cell-based; conditions: Staphylococcus aureus 5 (MRSA)
Method: as §1, §2, §3, §4

[13] = tested on: Staphylococcus haemoliticus 585; assay: MIC by broth microdilution; type: cell-based; conditions: Staphylococcus haemoliticus 585
Method: as §1, §2, §3, §4

[14] = tested on: Salmonella cholerasuis ATCC 14028; assay: MIC by broth microdilution; type: cell-based; conditions: ATCC14028
Method: as §1, §2, §3, §4

Staphylococcus aureus 10 = assay: MIC by broth microdilution; type: cell-based
Method: as §1, §2, §3, §4

[15] = tested on: Klebsiella pneumoniae ATCC 13883; assay: MIC by broth microdilution; type: cell-based; conditions: ATCC13883
Method: as §1, §2, §3, §4

Enterococcus faecium 569 = assay: MIC by broth microdilution; type: cell-based; conditions: Enterococcus faecium 569
Method: as §1, §2, §3, §4

Gram-positive bacteria = assay: MIC against Gram-positive bacteria; type: cell-based
Method: as §1, §5

SMILES: C[C@@H]1[C@H](O)[C@@H](C)/C=C/C=C/C=C/C=C/C=C/C=C/C=C/[C@H](O[C@@H]2O[C@H](C)[C@@H](O)[C@H](N)[C@@H]2O)C[C@@H]2O[C@](O)(C[C@@H](O)C[C@@H](O)[C@H](O)CC[C@@H](O)C[C@@H](O)CC(=O)O[C@H]1C)C[C@H](O)[C@H]2C(=O)O [Amphotericin B, amphotericin B, reference compound]
- IC50 at 72 h [1]: 0.7 µg/mL (≈ 0.758 µM)
- MIC [2]: 1 µg/mL (≈ 1.08 µM)
- MIC [3]: 1 µg/mL (≈ 1.08 µM)

SMILES: CCCn1cc([C+](c2cn(CCC)c3ccccc23)c2cn(CCC)c3ccccc23)c2ccccc21.[Cl-] [Compound 4, tris(1-propyl-1H-indol-3-yl) methylium chloride]
- MIC [4]: 2 µg/mL
- IC50 at 72 h [1]: 0.07 µg/mL
- MIC [5]: 1 µg/mL
- MIC [6]: 0.25 µg/mL
- MIC [7]: 0.5 µg/mL
- MIC [8]: 0.25 µg/mL
- MIC [9]: 64 µg/mL
- MIC [10]: 0.25 µg/mL
- MIC [11]: 0.13 µg/mL
- MIC [12]: 32 µg/mL
- MIC (Staphylococcus aureus 5): 0.5 µg/mL
- MIC [13]: 0.5 µg/mL
- MIC [14]: 32 µg/mL
- MIC (Staphylococcus aureus 10): 0.25 µg/mL
- MIC [15]: > 64 µg/mL
- MIC (Enterococcus faecium 569): 1 µg/mL
- MIC [2]: 1 µg/mL
- MIC [3]: 2 µg/mL
- MIC (Gram-positive bacteria): 0.25 µg/mL
